Measurements as given in US8784782B2 (Senomyx, Inc., priority 2005, dated 2014).
Where two headings read alike, the source gives them in different places.

Experiments:
[1] = target: T1, hT1R1/hT1R3 umami receptor expressed in an HEK293 cell line (Homo sapiens, UniProt Q7RTX0+Q7RTX1); assay: In vitro hT1R1/hT1R3 umami taste receptor activation assay (FLIPR, dose response); type: cell-based
T1 construct: expressed in transfected cells; host or cells: HEK293 cell line derivative, hT1R1/hT1R3-HEK293-Gα15, clone I-17, mifepristone-induced
T1 sequence (Q7RTX1 21-841): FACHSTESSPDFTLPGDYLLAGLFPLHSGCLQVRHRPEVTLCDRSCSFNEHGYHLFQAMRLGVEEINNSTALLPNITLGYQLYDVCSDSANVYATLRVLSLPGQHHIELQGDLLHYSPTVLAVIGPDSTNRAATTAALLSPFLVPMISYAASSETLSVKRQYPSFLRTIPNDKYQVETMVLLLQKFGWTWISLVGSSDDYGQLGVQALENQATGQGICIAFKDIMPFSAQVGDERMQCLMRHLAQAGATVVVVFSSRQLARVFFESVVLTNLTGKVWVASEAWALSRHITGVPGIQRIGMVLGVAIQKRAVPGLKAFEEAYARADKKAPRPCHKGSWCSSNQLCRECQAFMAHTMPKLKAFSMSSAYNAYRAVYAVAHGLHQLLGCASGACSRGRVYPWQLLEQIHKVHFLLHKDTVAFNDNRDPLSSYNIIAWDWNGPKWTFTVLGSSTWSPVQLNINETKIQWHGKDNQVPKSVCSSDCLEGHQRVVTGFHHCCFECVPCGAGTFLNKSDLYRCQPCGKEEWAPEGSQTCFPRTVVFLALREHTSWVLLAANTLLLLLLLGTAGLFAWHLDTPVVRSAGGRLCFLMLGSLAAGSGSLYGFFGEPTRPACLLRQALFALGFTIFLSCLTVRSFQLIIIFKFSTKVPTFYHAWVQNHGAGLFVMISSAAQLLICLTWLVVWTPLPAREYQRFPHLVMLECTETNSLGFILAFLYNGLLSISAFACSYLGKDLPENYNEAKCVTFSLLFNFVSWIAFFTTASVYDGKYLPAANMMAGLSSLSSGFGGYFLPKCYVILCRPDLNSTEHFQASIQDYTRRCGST
T1 sequence (Q7RTX0 21-852): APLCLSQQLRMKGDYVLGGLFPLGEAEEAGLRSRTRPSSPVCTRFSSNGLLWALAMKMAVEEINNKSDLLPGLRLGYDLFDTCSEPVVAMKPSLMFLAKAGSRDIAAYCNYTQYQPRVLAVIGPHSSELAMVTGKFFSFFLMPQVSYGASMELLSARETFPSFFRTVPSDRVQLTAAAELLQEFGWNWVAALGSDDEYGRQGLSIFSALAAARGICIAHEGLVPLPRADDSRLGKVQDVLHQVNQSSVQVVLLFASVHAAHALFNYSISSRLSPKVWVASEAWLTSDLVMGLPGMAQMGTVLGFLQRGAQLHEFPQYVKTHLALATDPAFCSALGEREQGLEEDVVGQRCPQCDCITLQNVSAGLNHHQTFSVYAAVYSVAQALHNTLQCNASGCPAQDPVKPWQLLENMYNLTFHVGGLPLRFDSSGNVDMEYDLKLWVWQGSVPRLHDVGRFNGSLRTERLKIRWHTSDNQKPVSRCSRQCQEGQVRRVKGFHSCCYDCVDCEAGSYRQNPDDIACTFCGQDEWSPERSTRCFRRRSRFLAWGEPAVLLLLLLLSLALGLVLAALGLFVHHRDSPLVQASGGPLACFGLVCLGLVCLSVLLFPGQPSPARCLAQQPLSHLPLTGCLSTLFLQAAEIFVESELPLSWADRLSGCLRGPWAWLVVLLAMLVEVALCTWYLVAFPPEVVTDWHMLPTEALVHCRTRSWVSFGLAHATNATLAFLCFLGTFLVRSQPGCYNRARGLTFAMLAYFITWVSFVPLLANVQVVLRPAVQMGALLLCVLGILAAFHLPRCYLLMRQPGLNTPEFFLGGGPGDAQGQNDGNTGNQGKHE
Protocol: Activity was determined using an automated fluorometric imaging assay on a FLIPR instrument ([…], Molecular Devices, Sunnyvale, Calif.) (designated FLIPR assay). […] After replacement with 25 μl D-PBS, stimulation was performed in the FLIPR instrument and at room temperature by the addition of 25 μl D-PBS supplemented with different stimuli at concentrations corresponding to twice the desired final level. Receptor activity was quantified by determining the maximal fluorescence increases (using a 480 nm excitation and 535 nm emission) after normalization to basal fluorescence intensity measured before stimulation.
Activities were normalized to the response obtained with 60 mM monosodium glutamate, a concentration that elicits maximum receptor response.

[2] = target: T1, hT1R1/hT1R3 umami receptor expressed in an HEK293 cell line; assay: Umami taste enhancement activity assay (EC50 ratio vs. MSG, FLIPR); type: cell-based; details: for Ec50 ratio (vs. MSG): Table A
Protocol: A series of measurements of the dose response is run in solutions comprising MSG alone, then a second dose response is run with MSG in combination with predetermined amounts of a candidate compound of Formula (I) at the same time.
Typical compound concentrations tested were 30 μM, 10 μM, 3 μM, 1 μM, 0.3 μM, 0.1 μM and 0.03 μM. The relative efficacy of compounds of Formula (I) at enhancing the receptor was determined by calculating the magnitude of a shift in the EC50 for monosodium glutamate. Enhancement was defined as a ratio (EC50R) corresponding to the EC50 of monosodium glutamate, determined in the absence of the test compound, divided by the EC50 of monosodium glutamate, determined in the presence of the test compound.
Stated alternatively, “EC50 ratio” as compared to MSG is calculated based on the following definitions: EC50 Ratio vs. MSG=EC50 (MSG)/EC50 (MSG+[Compound]) • wherein “[compound]” refers to the concentration of the compound of Formula (I) used to elicit (or enhance or potentiate) the MSG dose response.

un-induced I-17 cells = assay: FLIPR assay on un-induced I-17 cells (receptor dependency control); type: cell-based; details: un-induced I-17 cells (no mifepristone)
Protocol: In order to determine the dependency of hT1R1/hT1R3 for the cell response to different stimuli, selected compounds were subjected to a similar analysis on I-17 cells that had not been induced for receptor expression with mifepristone (designated as un-induced I-17 cells). […] Compounds were presented to un-induced umami cells at […]—or three times the maximum stimulation used in the dose-response analysis.

[3] = read-out: EC50 for activation of a hT1R1/hT1R3 umami receptor expressed in an HEK293 cell line
[4] = Table A, triazoles, read-out: Umami EC50

Row | EC50 [1, 4] | Ec50 ratio (vs. MSG) ([2]; @ 0.3 μM compound) | SMILES | further results
1 | – | – | Cc1ccc(-c2nc(SCc3ccccn3)n[nH]2)c(C)c1 [Example 3, 2-((5-(2,4-dimethylphenyl)-1H-1,2,4-triazol-3-ylthio)methyl)pyridine] | EC50 [1, 3]: 0.09 µM; EC50 ratio (enhanced the effectiveness of monosodium glutamate) ([2]; compound present at 0.01 μM): 4.3; melting point: 112 to 114 °C
2 | 2.89 µM | 3.02 | c1ccc(-c2n[nH]c(SCc3ccccn3)n2)cc1 [Example A17, 2-((5-phenyl-2H-1,2,4-triazol-3-ylthio)methyl)pyridine] | –
3 | 1.86 µM | – | Cc1ccccc1-c1n[nH]c(SCc2ccccn2)n1 [Example A12, 2-((5-o-tolyl-2H-1,2,4-triazol-3-ylthio)methyl)pyridine] | Ec50 ratio (vs. MSG) ([2]; @ 0.1 μM compound): 1.97
4 | 0.24 µM | 2.01 | COc1ccc(-c2n[nH]c(SCc3ccccn3)n2)c(C)c1 [Example A3, 2-((5-(4-methoxy-2-methylphenyl)-2H-1,2,4-triazol-3-ylthio)methyl)pyridine] | –
5 | 0.42 µM | – | CC(C)c1ccc(-c2n[nH]c(SCc3ccccn3)n2)cc1 [Example A5, 2-((5-(4-isopropylphenyl)-2H-1,2,4-triazol-3-ylthio)methyl)pyridine] | Ec50 ratio (vs. MSG) ([2]; @ 0.03 μM compound): 1.5
6 | 2.58 µM | 3.16 | COc1cc(OC)cc(-c2n[nH]c(SCc3ccccn3)n2)c1 [Example A16, 2-((5-(3,5-dimethoxyphenyl)-2H-1,2,4-triazol-3-ylthio)methyl)pyridine] | –
7 | 7.37 µM | 4.84 | COc1cc(OC)cc(-c2n[nH]c(SCCc3ccccn3)n2)c1 [Example A20, 2-(2-(5-(3,5-dimethoxyphenyl)-2H-1,2,4-triazol-3-ylthio)ethyl)pyridine] | –
8 | 0.37 µM | – | COc1ccc(-c2n[nH]c(SCc3ccccn3)n2)c(OC)c1 [Example A4, 2-((5-(2,4-dimethoxyphenyl)-2H-1,2,4-triazol-3-ylthio)methyl)pyridine] | Ec50 ratio (vs. MSG) ([2]; @ 0.1 μM compound): 6.22
9 | 0.17 µM | – | Cc1ccc(-c2n[nH]c(SCc3ccccn3)n2)cc1 [Example A1, 2-((5-p-tolyl-2H-1,2,4-triazol-3-ylthio)methyl)pyridine] | Ec50 ratio (vs. MSG) ([2]; @ 0.01 μM compound): 2.19
10 | – | – | Cc1cc(-c2nc(SCCc3ccccn3)n[nH]2)oc1C [Example 8, 2-(2-(5-(4,5-dimethylfuran-2-yl)-1H-1,2,4-triazol-3-ylthio)ethyl)pyridine] | EC50 [1, 3]: 1.87 µM; EC50 ratio (enhanced the effectiveness of monosodium glutamate) ([2]; compound present at 0.1 μM): 2.66
11 | 2.54 µM | – | Clc1cccc(-c2n[nH]c(SCc3ccccn3)n2)c1 [Example A15, 2-((5-(3-chlorophenyl)-2H-1,2,4-triazol-3-ylthio)methyl)pyridine] | Ec50 ratio (vs. MSG) ([2]; @ 0.1 μM compound): 2
12 | – | – | Cc1cc(-c2nc(SCc3ccccn3)n[nH]2)oc1C [Example 5, 2-((5-(4,5-dimethylfuran-2-yl)-1H-1,2,4-triazol-3-ylthio)methyl)pyridine] | EC50 [1, 3]: 0.58 µM; EC50 ratio (enhanced the effectiveness of monosodium glutamate) ([2]; compound present at 0.1 μM): 4.4
13 | 1.18 µM | 6.01 | c1ccc(CSc2nc(-c3ccc4c(c3)OCO4)n[nH]2)nc1 [Example A10, 2-((5-(benzo[d][1,3]dioxol-5-yl)-2H-1,2,4-triazol-3-ylthio)methyl)pyridine] | –
14 | – | – | N[C@@H](CCC(=O)O)C(=O)[O-].[Na+] [monosodium glutamate] | functional response in the FLIPR assay (un-induced I-17 cells): do not show any functional response
15 | – | – | c1ccc(CSc2n[nH]c(-c3cc4ccccc4o3)n2)nc1 [Example 6] | EC50 [1, 3]: 2.58 µM; EC50 ratio (enhanced the effectiveness of monosodium glutamate) ([2]; compound present at 0.1 μM): 2.88
16 | 0.18 µM | – | COc1cccc(-c2n[nH]c(SCc3ccccn3)n2)c1OC [Example A2, 2-((5-(2,3-dimethoxyphenyl)-2H-1,2,4-triazol-3-ylthio)methyl)pyridine] | Ec50 ratio (vs. MSG) ([2]; @ 0.01 μM compound): 1.9
17 | – | – | CCc1ccc(-c2nc(SCc3ccccn3)n[nH]2)cc1 [Example 4, 2-((5-(4-Ethylphenyl)-1H-1,2,4-triazol-3-ylthio)methyl)pyridine] | EC50 [1, 3]: 0.14 µM; EC50 ratio (enhanced the effectiveness of monosodium glutamate) ([2]; compound present at 0.03 μM): 4.4
18 | 6.49 µM | 2.01 | CCOc1ccccc1-c1n[nH]c(SCc2ccccn2)n1 [Example A19, 2-((5-(2-ethoxyphenyl)-2H-1,2,4-triazol-3-ylthio)methyl)pyridine] | –
19 | 2.12 µM | 7.36 | COc1ccccc1-c1n[nH]c(SCc2ccccn2)n1 [Example A13, 2-((5-(2-methoxyphenyl)-2H-1,2,4-triazol-3-ylthio)methyl)pyridine] | –
20 | 0.74 µM | – | CCOc1ccc(-c2n[nH]c(SCc3ccccn3)n2)cc1 [Example A7, 2-((5-(4-ethoxyphenyl)-2H-1,2,4-triazol-3-ylthio)methyl)pyridine] | Ec50 ratio (vs. MSG) ([2]; @ 0.03 μM compound): 2.33
